Laboratory results published in patent publication US5409946A, “Isoxazole, isothiazole and pyrazole compounds that enhance cognitive function” (Abbott Laboratories, priority 1993, dated 1995).
Like-named read-outs stand apart in the source and are kept apart here.

System: ethanol-induced narcosis
Format: in vivo, male CD1 mice
Conditions: post-treatment
Source text: It is known that administration of ethanol to mice induces a state of narcosis in the animals. […] It is also known that certain compounds can modify the narcotic effect of ethanol in this model.
Animals: Male CD1 mice (Charles-River Co., Portage, Mich.) weighing 25-30 g were used in the experiments. Upon arrival they were caged in groups of 14 and allowed to acclimatize to laboratory conditions for one week before the beginning of the studies. They were fed standard rodent diet with food and water ad libitum.
Duration of sleep time: Mice received intraperitoneal (i.p.) injections of ethanol and either saline or one of the drug treatments. Upon loss of the righting reflex, a timer was started to record the duration of the sleep time until the reflex was recovered. Two types of experiments were conducted to study the effect of drugs before (pre-treatment) or after (post-treatment) the injection of the narcotic dose of ethanol. In the pre-treatment experiments the drugs were injected i.p., 15 minutes before ethanol. In the post-treatment experiments the drugs were administered i.p., 1 minute after the animals lost the righting reflex, which was approximately 5 minutes after administration of ethanol.
Drugs: Ethanol was prepared as a 20% v/v (16% w/v) solution in saline. Based on previous studies, a dose of 87 mmol/kg (4 g/kg) was selected as the narcotic dose. RO 15-4513, the benzodiazepine receptor inverse agonist discussed in the Background section, was purchased from RBI (Natick, Mass.). It was dissolved in saline solution with Tween-80 and ultrasonically homogenized for 3 minutes. […] The compounds of Examples 2 and 4, both novel neuronal nicotinic receptor ligands according to the present invention, were also dissolved in saline to the desired concentrations.

`Cc1cc([C@@H]2CCCN2C)on1.O=C(O)C(=O)O` [Example 2, 3-Methyl-5-(1-methyl-2(S)-pyrrolidinyl)-isoxazole oxalate salt] was tested, and the Sleeping time (0.062 μmol/kg i.p.) was 91 ± 20 % of controls, the Sleeping time (0.19 μmol/kg i.p.) was 68 ± 15 % of controls and the Sleeping time (0.62 μmol/kg i.p.) was 51 ± 8 % of controls. The “effect of post-treatment on ethanol-induced narcosis” value (i.p., p<0.05, one-tailed t test) was “significantly reduced”.
